Laboratory results: US12344599B2, “Prodigiosin analogs and methods of use” (Institute For Cancer Research, priority 2016, dated 2025)

Assays:
HCT116 p53−/− = assay: CellTiterGlo cell viability assay, HCT116 p53−/−; assay type: cell-based; details: Homo sapiens, HCT-116, colorectal cancer, p53 null, 72 hours
Method: (§1) • 1) Cell lines: HT29, SW480, DLD-1, HCT116, and p53-null HCT116 cells, H1975, MDA-MD-231, U251, FaDu, CAL-27, PANC-1, Aspc-1, and MRC5 were obtained from the ATCC and cultured as recommended. Cells were regularly authenticated by bioluminescence, growth, and morphologic observation. The cells were routinely examined for Mycoplasma and all cell lines underwent STR authentication. • 2) Western blotting: After treatment, protein lysates were collected for Western blot analysis. 15 μg of protein was used for SDS-PAGE. After primary and secondary antibody incubations, the signal was detected by chemiluminescent detection kit, imaged by Syngene (Imgen Technologies). […] The cell viability was assessed by CellTiterGlo bioluminescent cell proliferation assay (Promega), following the manufacturer's protocol. Bioluminescence imaging was measured using the IVIS imager. Percentage of cell viability (mean±SEM) at each dose was calculated against the respective DMSO control. The IC50 values were determined from the sigmoidal dose-response curves using GraphPad Prims4. • 4) Caspase activity assay: Cells were seeded in 96-well plate (1×10^4 cells/well). […] The caspase 3/7 activity was assessed by Caspase-Glo® 3/7 Assay kit (Promega), following the manufacturer's protocol. Bioluminescence imaging was measured using the IVIS imager. […]

FaDu = assay: CellTiterGlo cell viability assay, FaDu; assay type: cell-based; details: Homo sapiens, head & neck squamous cell carcinoma, p53 R248L, 72 hours
Method: as §1

c-Myc and PUMA = assay: Western blot of c-Myc, PUMA and p53 target genes; assay type: cell-based, human; details: colorectal cancer cell lines and Jurkat cells
Method: After treatment, protein lysates were collected for Western blot analysis. A total of […] of protein was used for SDS-PAGE. After primary and secondary antibody incubations, the signal was detected by a chemiluminescence detection kit, imaged by Syngene (Imgen Technologies). Antibodies for PUMA (for IHC), p53 (Santa Cruz Biotechnology), caspase 8, cleaved caspase 8, caspase 9, caspase 3, cleavage PARP, eIF2α, p-eIF2α (Ser51), CHOP, ATF4, DR5, FOXO3a, p-FOXO3a (Ser253), NF-κB p65, p-NF-κB p65 (Ser536), c-Jun, p-c-Jun (Ser63), JNK, p-JNK (Thr183/Tyr185), PUMA (for WB), c-Myc, phosphor-S62-cMyc (Cell Signaling Technology), Noxa, p21 (Calbiochem), p73 (Bethyl laboratories Inc), Ran (BD Biosciences), […] (Sigma).
To test this hypothesis, two ERK1/2 inhibitors that act by different mechanisms were used. U0126 is an indirect ERK1/2 inhibitor. It inhibits MEK1 kinase and blocks the phosphorylation of ERK1/2. […] Consistent with a previous publication (Choi et al., Genes Dev, 2010, 24, 1236-1241), SCH772984 can inhibit ERK1/2 function after ERK1/2 is phosphorylated (FIG. 73), and the same is observed for PG3-Oc (FIG. 73).

HT29 cells [1] = assay: Flow cytometry sub-G1 (PI staining) analysis; assay type: cell-based, human; details: for sub-G1 populations: HT29, co-treatment with PG3-Oc and TRAIL; for sub-G1 population: 1 μM PG3-Oc for 48 hours
Method: • 1) Cell lines: HT29, SW480, DLD-1, HCT116, and p53-null HCT116 cells, H1975, MDA-MD-231, U251, FaDu, CAL-27, PANC-1, Aspc-1, and MRC5 were obtained from the ATCC and cultured as recommended. Cells were regularly authenticated by bioluminescence, growth, and morphologic observation. The cells were routinely examined for Mycoplasma and all cell lines underwent STR authentication. • 2) Western blotting: After treatment, protein lysates were collected for Western blot analysis. 15 μg of protein was used for SDS-PAGE. After primary and secondary antibody incubations, the signal was detected by chemiluminescent detection kit, imaged by Syngene (Imgen Technologies). Antibodies for Puma, FLIPL/S and p53 (Santa Cruz Biotechnology), cleaved caspase 8, caspase 9, caspase 3, cleavage PARP, eIF2α, p-eIF2α(Ser51), CHOP, ATF4, DR5, FOXO3a, p-FOXO3a(Ser253), NF-κB p65, p-NF-κB p65(Ser536), c-Jun, p-c-Jun(Ser63), JNK, p-JNK(Thr183/Tyr185) (Cell Signaling Technology), Noxa, p21 (Calbiochem), p73 (Bethyl laboratories Inc), Ran (BD Biosciences), […] (Sigma). • 3) Cell viability assay: Cells were seeded in 96-well plate (6×10^3 cells/well). Cells were treated with different concentrations of compounds or dimethyl sulfoxide (DMSO) control for 72 hours. The cell viability was assessed by CellTiterGlo bioluminescent cell proliferation assay (Promega), following the manufacturer's protocol. Bioluminescence imaging was measured using the IVIS imager. Percentage of cell viability (mean±SEM) at each dose was calculated against the respective DMSO control. The IC50 values were determined from the sigmoidal dose-response curves using GraphPad Prims4. • 4) Caspase activity assay: Cells were seeded in 96-well plate (1×10^4 cells/well). Cells were treated with different concentrations of compounds or DMSO control for 24 hours. The caspase 3/7 activity was assessed by Caspase-Glo® 3/7 Assay kit (Promega), following the manufacturer's protocol. Bioluminescence imaging was measured using the IVIS imager. Caspase activity was normalized to cell numbers and compared to those of DMSO treatment as control in each cell line. Data is reported as mean RLU+SEM (n=3). • 5) Colony formation assays: Five hundred cells were seeded per well on 6-well plates and treated with different concentrations of compounds for 24 hours, then, cells were cultured with drug-free complete medium for 2 weeks with fresh medium changed every 7 days. Cells were fixed with 10% formalin and stained with 0.05% crystal violet at the end of 2 weeks period of cell culture. • 6) Flow cytometry assay: • a) Cell Cycle Analysis: Propidium iodide (PI) staining and flow cytometry were used to determine the degree of cellular apoptosis. Cells were seeded at 3×10^5 cells/well in six-well plates. Cells were treated with PG3-Oc for 48 hours. Cells were harvested, fixed by 70% ethanol, and stained by propidium iodide, then flow cytometry was performed as previously described (Smithen et al., Org. Biomol. Chem., 2013, 11, 62-68). The percentage of hypodiploid cells (sub-G1) was used to quantify dead cells in apoptosis assays. • b) Early apoptosis detection: Cells were seeded at 3×10^5 cells/well in six-well plates. Cells were treated with PG3-Oc for 48 hours. […]

HT29 cells [2] = assay: Western blot of apoptosis markers and PUMA, HT29; assay type: cell-based, human
Method: as §1

`CCCCCCCCOC(=O)CCc1c(C)[nH]c(/C=C2\N=C(c3ccc[nH]3)C=C2OC)c1C` [PG3-Oc, Octyl (Z)-3-(5-((4′-methoxy-1H,5′H-[2,2′-bipyrrol]-5′-ylidene)methyl)-2,4-dimethyl-1H-pyrrol-3-yl)propanoate] was tested, and the IC50 (HCT116 p53−/−) was 41.1 nM, the IC50 (FaDu) was 66 nM and the “effect on c-Myc” value (c-Myc and PUMA) was “potently downregulated c-Myc”. It also gave a sub-G1 populations (HT29 cells [1]; siRNA knockdown of DR5) of 29.5%, a sub-G1 populations (HT29 cells [1]; without DR5 knockdown) of 72.9% and a sub-G1 population (HT29 cells [1]; HT29, knockdown of PUMA by siRNA) of 11.1%. For the same compound, the sub-G1 population (HT29 cells [1]; HT29, siControl) was 25.8%, the “time at which PUMA protein was first induced post treatment” value (HT29 cells [2]; HT29, time-course) was 16 h and the “concentration sufficient to activate cleaved caspase-8 and -3 and cleaved-PARP” value (HT29 cells [2]; western blot) was 0.5 µM.
